How the values were obtained:
Assay in all cases: FRET-based coupled-enzyme protein kinase inhibition assay
Type in all cases: biochemical
Conditions in all cases: compound at 10 µM, 1% DMSO
[1] = molecular target: MAPK3 (ERK1) (Homo sapiens, UniProt P27361)
Description: (§1) A biochemical assay was then performed in order to measure the protein kinase inhibition. It employed a fluorescence-based coupled-enzyme format and was based on the differential sensitivity of phosphorylated and non-phosphorylated peptides to proteolytic cleavage.
(§2) Peptide substrates were labeled with two fluorophores. The two fluorohores used were coumarin (donor) and fluorecein (acceptor), and each of the peptides was bearing one at one end, and one at the other end, which made up fluorescence resonance energy transfer (FRET) pair peptides.
(§3) In a primary reaction, the FRET-peptides were submitted to a phosphorylation reaction, in which one of adenosine triphosphate (ATP)'s phosphate groups was transferred to the peptide in the presence of kinase. When kinase inhibition takes place, the peptide will not be phosphorylated. In a secondary reaction, both the phosphorylated FRET-peptides and the non-phosphorylated FRET-peptides were reacted with a development reagent. It has been observed that non-phosphorylated FRET-peptides were cleaved, whereas the phosphorylted FRET-peptide remained intact.
(§4) Cleavage disrupts FRET between the donor (i.e., coumarin) and acceptor (i.e., fluorescein) fluorophores on the FRET-peptide, whereas uncleaved, phosphorylated FRET-peptides maintain FRET. A ratiometric method, which calculates the Emission Ratio of donor emission to acceptor emission after excitation of the donor fluorophore at 400 nm, is used to quantitate reaction progress, as shown in the equation below. [formula]
(§5) A significant benefit of this ratiometric method for quantitating reaction progress is the elimination of well-to-well variations in FRET-peptide concentration and signal intensities. As a result, the assay yields very high Z'factor values (>0.7) at a low percent phosphorylation. Both cleaved and uncleaved FRET-peptides contribute to the fluorescence signals and therefore to the Emission Ratio. The extent of phosphorylation of the FRET-peptide can be calculated from the Emission Ratio. The Emission Ratio will remain low if the FRET-peptide is phosphorylated (i.e., no kinase inhibition) and will be high if the FRET-peptide is non-phosphorylated (i.e., kinase inhibition).
(§6) The Test Compounds were screened in 1% DMSO. For 10 point titrations, 3-fold serial dilutions were prepared from the starting concentration.
(§7) All Peptide/Kinase Mixtures were diluted to a 2X working concentration in the appropriate Kinase Buffer (50 mM HEPES pH 7.5, 0.01% BRIJ-35, 10 mM MgCl2, 1 mM […]).
(§8) All ATP Solutions were diluted to a 4X working concentration in Kinase Buffer. ATP Km apparent was previously determined using another assay.
(§9) 2.5 µL - 4X Test Compound or 100 nL 100X plus 2.4 µL kinase buffer were mixed together with 2. 5 µL - 2X Peptide/Kinase Mixture and 3. 2.5 µL - 4X ATP Solution.
(§10) The solution was plate-shaked for 30 seconds, then incubated 60 minutes at room temperature for kinase reaction. 5 µL of Development Reagent Solution were then added, followed by a 30-second plate shake and a 60-minute Development Reaction incubation at room temperature. The results were read on a fluorescence plate reader and the data was analyzed.
(§11) The compounds that show the highest Emission Ratio are the ones that also show the highest protein kinase inhibition properties.

[2] = molecular target: MET (cMet) (Homo sapiens, UniProt P08581)
Sequence of MET (cMet) (P08581 25-1390): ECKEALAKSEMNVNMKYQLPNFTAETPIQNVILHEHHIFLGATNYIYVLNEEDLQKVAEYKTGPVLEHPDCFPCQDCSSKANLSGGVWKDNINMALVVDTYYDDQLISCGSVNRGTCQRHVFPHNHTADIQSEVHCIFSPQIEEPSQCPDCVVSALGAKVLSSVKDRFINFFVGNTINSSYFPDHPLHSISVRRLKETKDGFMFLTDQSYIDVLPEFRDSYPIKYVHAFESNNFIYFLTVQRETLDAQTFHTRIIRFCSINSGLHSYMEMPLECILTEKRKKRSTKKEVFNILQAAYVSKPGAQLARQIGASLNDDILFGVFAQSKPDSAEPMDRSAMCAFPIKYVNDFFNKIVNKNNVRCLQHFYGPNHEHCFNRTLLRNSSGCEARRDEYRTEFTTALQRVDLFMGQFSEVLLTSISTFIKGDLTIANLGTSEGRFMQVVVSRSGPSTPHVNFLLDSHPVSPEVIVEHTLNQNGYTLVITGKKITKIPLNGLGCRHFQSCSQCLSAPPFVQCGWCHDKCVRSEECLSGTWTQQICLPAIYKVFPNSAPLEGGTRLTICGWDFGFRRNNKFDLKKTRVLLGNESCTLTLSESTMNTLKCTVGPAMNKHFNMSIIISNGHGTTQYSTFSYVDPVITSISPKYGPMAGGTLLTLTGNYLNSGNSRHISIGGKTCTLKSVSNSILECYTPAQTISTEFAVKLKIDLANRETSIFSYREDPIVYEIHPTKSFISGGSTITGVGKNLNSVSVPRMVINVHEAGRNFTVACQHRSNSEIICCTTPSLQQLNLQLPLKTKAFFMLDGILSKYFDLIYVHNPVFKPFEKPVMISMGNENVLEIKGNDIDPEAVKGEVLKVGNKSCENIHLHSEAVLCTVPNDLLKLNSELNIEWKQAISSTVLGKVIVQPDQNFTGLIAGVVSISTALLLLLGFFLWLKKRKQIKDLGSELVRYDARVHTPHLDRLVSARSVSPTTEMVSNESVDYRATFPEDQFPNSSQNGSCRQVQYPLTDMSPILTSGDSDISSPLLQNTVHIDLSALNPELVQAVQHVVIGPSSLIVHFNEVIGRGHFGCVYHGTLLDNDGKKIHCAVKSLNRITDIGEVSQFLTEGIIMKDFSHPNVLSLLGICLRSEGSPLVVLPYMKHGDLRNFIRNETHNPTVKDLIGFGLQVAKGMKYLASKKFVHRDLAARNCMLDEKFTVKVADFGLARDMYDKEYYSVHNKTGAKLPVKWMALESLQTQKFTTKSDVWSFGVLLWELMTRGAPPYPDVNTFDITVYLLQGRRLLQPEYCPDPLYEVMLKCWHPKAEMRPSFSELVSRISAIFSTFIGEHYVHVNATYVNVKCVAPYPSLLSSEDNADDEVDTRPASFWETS
Description: as §1, §2, §3, §4, §5, §6, §7, §8, §9, §10, §11

[3] = molecular target: MAP2K1 (MEK1) (Homo sapiens, UniProt Q02750)
Sequence of MAP2K1 (MEK1) (Q02750 whole entry, species assumed): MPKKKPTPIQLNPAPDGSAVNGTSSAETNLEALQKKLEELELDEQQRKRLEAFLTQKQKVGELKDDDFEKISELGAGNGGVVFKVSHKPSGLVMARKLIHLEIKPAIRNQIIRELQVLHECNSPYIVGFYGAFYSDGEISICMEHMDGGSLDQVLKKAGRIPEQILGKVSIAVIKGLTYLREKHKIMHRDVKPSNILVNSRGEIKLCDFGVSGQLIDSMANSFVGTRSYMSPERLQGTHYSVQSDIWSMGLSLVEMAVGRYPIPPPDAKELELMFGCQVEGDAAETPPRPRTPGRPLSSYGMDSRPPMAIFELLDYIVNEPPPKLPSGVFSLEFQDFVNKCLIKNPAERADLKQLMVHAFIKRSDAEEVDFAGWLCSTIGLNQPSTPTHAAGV
Description: as §1, §2, §3, §4, §5, §6, §7, §8, §9, §10, §11

[4] = molecular target: SYK (Homo sapiens, UniProt P43405)
Description: as §1, §2, §3, §4, §5, §6, §7, §8, §9, §10, §11

[5] = molecular target: MAPK1 (ERK2) (Homo sapiens, UniProt P28482)
Sequence of MAPK1 (ERK2) (P28482 whole entry, species assumed): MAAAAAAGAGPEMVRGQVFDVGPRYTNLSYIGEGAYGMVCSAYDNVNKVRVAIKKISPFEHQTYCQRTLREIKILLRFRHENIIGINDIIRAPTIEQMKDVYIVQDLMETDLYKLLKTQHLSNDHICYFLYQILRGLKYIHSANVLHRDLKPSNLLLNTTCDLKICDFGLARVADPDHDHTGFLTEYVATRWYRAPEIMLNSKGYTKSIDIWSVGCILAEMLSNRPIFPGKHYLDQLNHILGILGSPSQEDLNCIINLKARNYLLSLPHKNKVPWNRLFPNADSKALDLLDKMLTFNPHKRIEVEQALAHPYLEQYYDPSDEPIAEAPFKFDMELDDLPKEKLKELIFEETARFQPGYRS
Description: as §1, §2, §3, §4, §5, §6, §7, §8, §9, §10, §11

[6] = molecular target: TEK (Tie2) (Homo sapiens, UniProt Q02763)
Sequence of TEK (Tie2) (Q02763 23-1124, species assumed): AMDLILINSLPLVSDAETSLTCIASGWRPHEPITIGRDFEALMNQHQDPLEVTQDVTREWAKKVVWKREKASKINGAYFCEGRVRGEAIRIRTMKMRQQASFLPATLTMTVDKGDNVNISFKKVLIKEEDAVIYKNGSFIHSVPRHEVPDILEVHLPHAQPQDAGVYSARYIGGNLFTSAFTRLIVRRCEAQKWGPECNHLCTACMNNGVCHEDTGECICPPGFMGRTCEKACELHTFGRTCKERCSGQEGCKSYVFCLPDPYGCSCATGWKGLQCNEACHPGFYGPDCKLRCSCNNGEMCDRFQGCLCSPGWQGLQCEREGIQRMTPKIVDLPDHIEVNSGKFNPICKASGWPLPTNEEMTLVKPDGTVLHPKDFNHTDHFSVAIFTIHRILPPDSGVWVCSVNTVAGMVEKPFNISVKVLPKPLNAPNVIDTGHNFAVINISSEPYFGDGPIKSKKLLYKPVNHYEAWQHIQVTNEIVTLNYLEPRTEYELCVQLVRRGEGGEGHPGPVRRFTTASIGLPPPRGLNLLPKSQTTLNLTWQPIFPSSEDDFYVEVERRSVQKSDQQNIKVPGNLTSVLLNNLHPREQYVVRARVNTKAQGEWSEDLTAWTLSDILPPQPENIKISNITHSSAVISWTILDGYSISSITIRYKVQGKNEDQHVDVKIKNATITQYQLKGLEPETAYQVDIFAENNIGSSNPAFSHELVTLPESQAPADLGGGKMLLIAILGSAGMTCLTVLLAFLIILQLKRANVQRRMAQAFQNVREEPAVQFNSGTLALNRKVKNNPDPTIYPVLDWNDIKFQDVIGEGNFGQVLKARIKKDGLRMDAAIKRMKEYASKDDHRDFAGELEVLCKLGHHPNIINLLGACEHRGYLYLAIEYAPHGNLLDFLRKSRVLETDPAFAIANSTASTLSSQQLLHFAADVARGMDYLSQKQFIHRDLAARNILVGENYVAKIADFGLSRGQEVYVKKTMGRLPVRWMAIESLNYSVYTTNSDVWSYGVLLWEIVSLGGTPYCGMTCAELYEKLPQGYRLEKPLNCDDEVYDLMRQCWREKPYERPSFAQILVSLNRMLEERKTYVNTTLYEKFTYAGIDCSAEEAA
Description: as §1, §2, §3, §4, §5, §6, §7, §8, §9, §10, §11

[7] = molecular target: ABL1 (Homo sapiens, UniProt P00519)
Description: as §1, §2, §3, §4, §5, §6, §7, §8, §9, §10, §11

[8] = molecular target: KDR (VEGFR2) (Homo sapiens, UniProt P35968)
Sequence of KDR (VEGFR2) (P35968 20-1356, species assumed): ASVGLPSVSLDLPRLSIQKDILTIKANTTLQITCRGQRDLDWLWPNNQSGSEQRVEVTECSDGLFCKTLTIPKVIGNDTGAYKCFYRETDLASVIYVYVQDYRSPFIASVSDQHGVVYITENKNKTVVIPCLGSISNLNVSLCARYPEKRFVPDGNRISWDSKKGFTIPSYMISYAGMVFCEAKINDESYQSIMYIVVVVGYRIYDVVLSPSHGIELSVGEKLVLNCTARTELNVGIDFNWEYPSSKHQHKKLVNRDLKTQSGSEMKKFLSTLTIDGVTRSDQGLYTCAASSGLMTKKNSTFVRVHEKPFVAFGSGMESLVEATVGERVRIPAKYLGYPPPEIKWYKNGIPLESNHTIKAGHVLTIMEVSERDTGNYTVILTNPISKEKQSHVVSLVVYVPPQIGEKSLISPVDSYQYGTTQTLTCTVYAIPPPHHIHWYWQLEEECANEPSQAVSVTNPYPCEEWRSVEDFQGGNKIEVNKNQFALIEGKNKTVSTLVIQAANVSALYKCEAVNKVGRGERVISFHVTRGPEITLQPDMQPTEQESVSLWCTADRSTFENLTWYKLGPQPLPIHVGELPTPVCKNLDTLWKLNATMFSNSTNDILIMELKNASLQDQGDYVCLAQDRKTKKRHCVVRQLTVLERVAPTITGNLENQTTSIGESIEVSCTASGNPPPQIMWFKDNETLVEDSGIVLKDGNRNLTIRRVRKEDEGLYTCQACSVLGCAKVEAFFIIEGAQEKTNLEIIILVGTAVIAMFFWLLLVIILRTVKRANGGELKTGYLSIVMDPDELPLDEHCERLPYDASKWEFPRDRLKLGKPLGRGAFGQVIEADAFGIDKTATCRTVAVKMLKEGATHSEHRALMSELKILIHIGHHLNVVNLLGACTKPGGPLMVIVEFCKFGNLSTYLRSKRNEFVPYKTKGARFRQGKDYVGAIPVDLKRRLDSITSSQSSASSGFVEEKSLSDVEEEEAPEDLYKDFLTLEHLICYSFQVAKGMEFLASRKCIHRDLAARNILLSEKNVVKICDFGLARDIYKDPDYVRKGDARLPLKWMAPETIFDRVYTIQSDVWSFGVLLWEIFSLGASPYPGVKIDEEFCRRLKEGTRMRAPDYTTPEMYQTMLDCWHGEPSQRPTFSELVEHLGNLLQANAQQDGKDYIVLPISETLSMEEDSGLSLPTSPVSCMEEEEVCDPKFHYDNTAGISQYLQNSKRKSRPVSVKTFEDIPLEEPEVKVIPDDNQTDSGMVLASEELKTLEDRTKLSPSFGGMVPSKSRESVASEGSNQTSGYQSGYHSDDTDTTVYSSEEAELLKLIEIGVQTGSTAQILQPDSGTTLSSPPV
Description: as §1, §2, §3, §4, §5, §6, §7, §8, §9, §10, §11

[9] = molecular target: T1, NEK1 (Homo sapiens, UniProt Q96PY6)
T1 sequence (Q96PY6 1-1258): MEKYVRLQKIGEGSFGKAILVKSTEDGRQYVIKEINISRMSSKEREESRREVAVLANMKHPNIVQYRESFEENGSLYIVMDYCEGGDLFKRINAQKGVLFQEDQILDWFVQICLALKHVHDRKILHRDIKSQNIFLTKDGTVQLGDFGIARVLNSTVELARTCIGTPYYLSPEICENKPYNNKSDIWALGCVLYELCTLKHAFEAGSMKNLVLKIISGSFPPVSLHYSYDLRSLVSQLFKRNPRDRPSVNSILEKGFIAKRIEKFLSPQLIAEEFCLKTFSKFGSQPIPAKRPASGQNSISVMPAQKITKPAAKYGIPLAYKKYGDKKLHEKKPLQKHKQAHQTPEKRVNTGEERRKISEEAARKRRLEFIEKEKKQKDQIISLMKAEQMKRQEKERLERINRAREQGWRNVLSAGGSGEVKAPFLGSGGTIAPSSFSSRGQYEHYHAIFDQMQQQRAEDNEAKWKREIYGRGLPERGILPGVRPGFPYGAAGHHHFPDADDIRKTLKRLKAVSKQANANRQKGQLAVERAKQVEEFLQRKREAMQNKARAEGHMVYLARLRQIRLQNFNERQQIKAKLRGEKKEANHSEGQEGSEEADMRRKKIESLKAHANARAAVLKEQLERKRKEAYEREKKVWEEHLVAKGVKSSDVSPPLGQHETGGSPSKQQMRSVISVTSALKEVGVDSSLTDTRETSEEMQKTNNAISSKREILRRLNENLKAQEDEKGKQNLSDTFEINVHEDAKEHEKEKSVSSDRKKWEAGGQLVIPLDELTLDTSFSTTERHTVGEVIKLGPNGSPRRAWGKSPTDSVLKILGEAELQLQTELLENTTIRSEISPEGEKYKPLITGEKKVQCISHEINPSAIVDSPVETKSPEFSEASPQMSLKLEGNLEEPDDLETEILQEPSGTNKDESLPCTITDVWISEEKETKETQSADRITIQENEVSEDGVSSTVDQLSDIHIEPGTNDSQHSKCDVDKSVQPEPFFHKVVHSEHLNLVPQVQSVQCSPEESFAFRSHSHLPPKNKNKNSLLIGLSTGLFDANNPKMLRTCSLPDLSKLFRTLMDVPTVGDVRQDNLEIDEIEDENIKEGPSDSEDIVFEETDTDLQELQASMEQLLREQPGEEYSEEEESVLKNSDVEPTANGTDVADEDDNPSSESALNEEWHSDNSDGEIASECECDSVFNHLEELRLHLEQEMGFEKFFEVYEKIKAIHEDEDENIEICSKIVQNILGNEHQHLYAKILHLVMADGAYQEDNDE
Description: as §1, §2, §3, §4, §5, §6, §7, §8, §9, §10, §11

Sequence of MAPK3 (ERK1) (P27361 whole entry, species assumed): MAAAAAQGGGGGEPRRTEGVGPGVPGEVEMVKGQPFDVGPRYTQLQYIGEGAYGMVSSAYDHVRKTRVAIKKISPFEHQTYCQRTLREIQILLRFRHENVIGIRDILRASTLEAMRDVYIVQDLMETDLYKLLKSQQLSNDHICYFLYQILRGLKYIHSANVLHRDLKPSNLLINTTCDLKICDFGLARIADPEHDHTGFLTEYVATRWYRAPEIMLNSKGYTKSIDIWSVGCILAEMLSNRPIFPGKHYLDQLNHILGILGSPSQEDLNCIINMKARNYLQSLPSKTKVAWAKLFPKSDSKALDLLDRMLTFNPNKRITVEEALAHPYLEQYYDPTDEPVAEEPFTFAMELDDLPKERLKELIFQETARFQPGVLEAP

inhibition at 10 µM [1] [%] | inhibition at 10 µM [2] [%] | inhibition at 10 µM [3] [%] | inhibition at 10 µM [4] [%] | inhibition at 10 µM [5] [%] | inhibition at 10 µM [6] [%] | inhibition at 10 µM [7] [%] | inhibition at 10 µM [8] [%] | inhibition at 10 µM [9] [%] | SMILES
3 | -4 | -2 | -5 | 9 | -2 | -3 | -6 | -7 | Nc1ncnc2c1ncn2[C@@H]1O[C@H](COC(=O)N2CCN(C(=O)N3CCOCC3)CC2)[C@@H](O)[C@H]1O [Compound C89]
6 | 3 | 4 | 4 | 8 | 12 | 11 | 4 | 4 | C[C@@H](NC(=O)OC[C@H]1O[C@@H](n2cnc3c(N)ncnc32)[C@H](O)[C@@H]1O)c1ccc(Cl)cc1 [Compound C4]
12 | -16 | 10 | 7 | 16 | -3 | 22 | 0 | -5 | Nc1ncnc2c1ncn2[C@@H]1O[C@H](COC(=O)NC[C@H](O)CO)[C@@H](O)[C@H]1O [Compound C8]

Reference: patent publication EP3212201B1, “NUCLEOSIDE KINASE INHIBITORS” (BCI Pharma, priority 2014, dated 2016)
